What was measured:
Conditions in all cases: 48 h
[1] = tested on: NOMO1; assay: AUC of viability dose-response curve (% viability x log10 dose units); higher = less sensitive
Outline: (§1)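 Library compounds in DMSO were applied for 48 h at 37°C at 11 threefold doses (47 μM to 0.79 nM) to medium-adapted leukemia cells in 1536-well plates holding 500 or 1000 cells/well. Luminescence from CellTiter-Glo One was normalised plate by plate against DMSO and cell-free wells. Area under the curve came from trapezoidal integration of a log-logistic fit, after scaling curves that rose above full viability and discarding those that failed quality control. The fit had four parameters and used log10 doses.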

[2] = tested on: P12-Ichikawa; assay: as above
Outline: as §1

[3] = tested on: SEM cells; assay: as above
Outline: as §1

[4] = tested on: SEM cells; assay: cell viability relative to DMSO control; higher = less cytotoxic
Outline: (§2)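 NOMO1, SEM and P12-Ichikawa leukemia cells spent at least four passages adapting to each medium before use. They were seeded at 500 cells/well (NOMO1, SEM) or 1000 cells/well (P12-Ichikawa) in 5 μl in 1536-well plates and pin-dosed with library compounds in DMSO at 11 threefold steps from 47 μM down to 0.79 nM. After 48 h at 37°C, CellTiter-Glo One luminescence was read. Viability is reported as a percentage of the DMSO wells on each plate, with cell-free wells as background.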

[5] = tested on: NOMO1; assay: as above
Outline: as §2

[6] = tested on: P12-Ichikawa; assay: as above
Outline: as §2

O=C1c2c(O)cc(O)cc2O[C@H](c2cc(O)c(O)c(O)c2)[C@H]1O
AUC of viability dose-response curve
Conditions	[1]	[2]	[3]
HPLM + 10% dialyzed FBS	430	456	426
RPMI 5 mM glucose + 10% FBS	461	452	410
RPMI 5 mM glucose + 10% dialyzed FBS	453	455	420

CC(=O)C1=C(O)C2(C)C(=CC1=O)Oc1c(C(C)=O)c(O)c(C)c(O)c12 (stereo unspecified)
cell viability [%], [4]
Conditions	HPLM + 10% dialyzed FBS	RPMI 5 mM glucose + 10% FBS
0.000781 µM	83.1	99.1
0.00234 µM	120	145
0.00702 µM	123	123
0.0211 µM	123	129
0.0632 µM	124	128
0.19 µM	133	152
0.569 µM	118	153
1.71 µM	149	124
5.12 µM	133	136
15.4 µM	149	133
46.1 µM	124	130

AUC of viability dose-response curve
Conditions	[1]	[2]	[3]
HPLM + 10% dialyzed FBS	328	347	459
RPMI 5 mM glucose + 10% FBS	305	342	452
RPMI 5 mM glucose + 10% dialyzed FBS	321	375	448

CCCCCCCCCCCCCCCC(=O)O[C@@H]1[C@@H](O)[C@@H](O)[C@@H]([C@H](NC(=O)[C@@H]2C[C@@H](CCC)CN2C)[C@H](C)Cl)O[C@@H]1SC.Cl
AUC of viability dose-response curve
Conditions	[1]	[2]	[3]
HPLM + 10% dialyzed FBS	426	452	470
RPMI 5 mM glucose + 10% FBS	423	456	469
RPMI 5 mM glucose + 10% dialyzed FBS	425	442	465

CNC(=O)c1cc(Oc2ccc(NC(=O)Nc3ccc(Cl)c(C(F)(F)F)c3)cc2)ccn1
cell viability [%], [4]
Conditions	RPMI 5 mM glucose + 10% FBS	RPMI 5 mM glucose + 10% dialyzed FBS
0.000781 µM	108	109
0.00234 µM	112	108
0.00702 µM	89.1	98.8
0.0211 µM	89.8	79.3
0.0632 µM	70.8	64.7
0.19 µM	57.1	57.8
0.569 µM	54	59.7
1.71 µM	75.3	63.8
5.12 µM	63.9	72.1
15.4 µM	63	68.9
46.1 µM	5.7	11.6

AUC of viability dose-response curve
Conditions	[1]	[2]	[3]
HPLM + 10% dialyzed FBS	445	457	278
RPMI 5 mM glucose + 10% FBS	448	448	313
RPMI 5 mM glucose + 10% dialyzed FBS	432	448	317

CNC(=O)c1ccc(N2C(=S)N(c3ccc(C#N)c(C(F)(F)F)c3)C(=O)C2(C)C)cc1F
cell viability [%]
Conditions	[4]	[5]	[6]
HPLM + 10% dialyzed FBS, 0.000781 µM	87.9	87.7	98.8
HPLM + 10% dialyzed FBS, 0.00234 µM	96.9	114	106
HPLM + 10% dialyzed FBS, 0.00702 µM	42.8	105	79.6
HPLM + 10% dialyzed FBS, 0.0211 µM	113	125	110
HPLM + 10% dialyzed FBS, 0.0632 µM	105	117	123
HPLM + 10% dialyzed FBS, 0.19 µM	113	127	117
HPLM + 10% dialyzed FBS, 0.569 µM	112	120	115
HPLM + 10% dialyzed FBS, 1.71 µM	109	115	124
HPLM + 10% dialyzed FBS, 5.12 µM	117	143	114
HPLM + 10% dialyzed FBS, 15.4 µM	121	127	108
HPLM + 10% dialyzed FBS, 46.1 µM	105	111	107
RPMI 5 mM glucose + 10% FBS, 0.000781 µM	71.3	93	107
RPMI 5 mM glucose + 10% FBS, 0.00234 µM	74	124	119
RPMI 5 mM glucose + 10% FBS, 0.00702 µM	9.73	121	72
RPMI 5 mM glucose + 10% FBS, 0.0211 µM	74.8	118	109
RPMI 5 mM glucose + 10% FBS, 0.0632 µM	73.9	125	123
RPMI 5 mM glucose + 10% FBS, 0.19 µM	81.9	111	117
RPMI 5 mM glucose + 10% FBS, 0.569 µM	86.3	111	122
RPMI 5 mM glucose + 10% FBS, 1.71 µM	72.2	121	120
RPMI 5 mM glucose + 10% FBS, 5.12 µM	90.1	123	124
RPMI 5 mM glucose + 10% FBS, 15.4 µM	76.1	121	116
RPMI 5 mM glucose + 10% FBS, 46.1 µM	64.1	115	98.5
RPMI 5 mM glucose + 10% dialyzed FBS, 0.000781 µM	87.7	102	102
RPMI 5 mM glucose + 10% dialyzed FBS, 0.00234 µM	99.6	112	113
RPMI 5 mM glucose + 10% dialyzed FBS, 0.00702 µM	31.2	103	80.4
RPMI 5 mM glucose + 10% dialyzed FBS, 0.0211 µM	116	113	108
RPMI 5 mM glucose + 10% dialyzed FBS, 0.0632 µM	109	121	120
RPMI 5 mM glucose + 10% dialyzed FBS, 0.19 µM	111	116	117
RPMI 5 mM glucose + 10% dialyzed FBS, 0.569 µM	104	124	119
RPMI 5 mM glucose + 10% dialyzed FBS, 1.71 µM	110	126	122
RPMI 5 mM glucose + 10% dialyzed FBS, 5.12 µM	104	115	122
RPMI 5 mM glucose + 10% dialyzed FBS, 15.4 µM	110	121	112
RPMI 5 mM glucose + 10% dialyzed FBS, 46.1 µM	87.9	114	91.1

AUC of viability dose-response curve
Conditions	HPLM + 10% dialyzed FBS	RPMI 5 mM glucose + 10% FBS	RPMI 5 mM glucose + 10% dialyzed FBS
[1]	457	472	460
[2]	453	456	457

O=C(/C=C/C=C/c1ccc2c(c1)OCO2)N1CCCCC1
cell viability [%], [4]
Conditions	HPLM + 10% dialyzed FBS	RPMI 5 mM glucose + 10% dialyzed FBS
0.000781 µM	129	114
0.00234 µM	119	129
0.00702 µM	125	103
0.0211 µM	127	157
0.0632 µM	139	146
0.19 µM	128	129
0.569 µM	116	150
1.71 µM	133	131
5.12 µM	132	167
15.4 µM	119	140
46.1 µM	87.1	108

AUC of viability dose-response curve
Conditions	[1]	[2]	[3]
HPLM + 10% dialyzed FBS	429	446	466
RPMI 5 mM glucose + 10% FBS	444	463	448
RPMI 5 mM glucose + 10% dialyzed FBS	448	467	456

CC1=CC=C(C=C1)N(C\C2=N\CCN2)C3=CC=CC(=C3)O
[4], HPLM + 10% dialyzed FBS
Conditions	cell viability [%]
0.000781 µM	118
0.00234 µM	114
0.00702 µM	122
0.0211 µM	120
0.0632 µM	117
0.19 µM	126
0.569 µM	132
1.71 µM	131
5.12 µM	131
15.4 µM	131
46.1 µM	68.4

AUC of viability dose-response curve
Conditions	[1]	[2]	[3]
HPLM + 10% dialyzed FBS	352	473	454
RPMI 5 mM glucose + 10% FBS	403	452	464
RPMI 5 mM glucose + 10% dialyzed FBS	407	459	468

Source: the supplement of paper PMC11451515
